Measurements published in patent US20120122212A1, “TGF-BETA PATHWAY INHIBITORS FOR ENHANCEMENT OF CELLULAR REPROGRAMMING OF HUMAN CELLS” (priority 2009, published 2012).
Where two headings read alike, the source gives them in different places.

How the values were obtained:
Sox2 = Sox2 gene expression (Taqman, normalized to GAPDH) in neonatal human dermal fibroblasts; format: cell-based; settings: for increase in Sox2 expression compared to cells that receive no drug treatment: daily feeding
Method: (§1) Neonatal human dermal fibroblasts (fibroblast cell line NHDF-3955-Neo from Lonza) are cultured under standard cell culture conditions using hFib media (DMEM, 20% Earl's 199 media, 10% FBS, Glutamax, beta-mercaptoethanol (bME)). Approximately 12,000 cells per well are plated on a 12-well plate. 24 hrs after plating, cells are daily fed with media containing 4, 10, 20, 50 or 100 μM GPI-1046 (ACC Corporation) or 1% DMSO. After 6 days, cells are collected and RNA is extracted using a Qiagen RNeasy kit. Gene expression is analyzed using specific Taqman primer-probe sets for Sox2, Oct4, and GAPDH on an ABI 7900HT. Gene expression of cells previously infected with retroviruses encoding Sox2, Oct4, Klf4, and c-Myc (“KSOM”) is also analyzed and is used for positive control purposes. The expression of Sox2 and Oct4 is normalized to the expression of housekeeping gene GAPDH. […] As also indicated in FIG. 1, cells that are treated with 50 μM or 100 μM GPI-1046 express about 5.2-fold and 5.7-fold, respectively, increases in Oct4 when compared to cells that receive no agent treatment and approximately a 3.5- and 3.8-fold increase, respectively, in relative expression of Oct4 when compared to cells that are treated with DMSO.
Neonatal human dermal fibroblasts (fibroblast cell line NHDF-3955-Neo from Lonza) are cultured under standard cell culture conditions using hFib media (DMEM, 20% Earl's 199 media, 10% FBS, Glutamax, beta-mercaptoethanol (bME)). Approximately 12,000 cells per well are plated on a 12-well plate. 24 hrs after plating, cells are daily fed with media containing 2, 5, 25 or 50 μM 616 453 (Calbiochem) or 1% DMSO. After 6 days, cells are collected and RNA is extracted using a Qiagen RNeasy kit. Gene expression is analyzed using specific Taqman primer-probe sets for Sox2 and GAPDH on an ABI 7900HT. Gene expression of cells previously infected with retroviruses encoding Sox2, Oct4, Klf4, and c-Myc (“KSOM”) is also analyzed and is used for positive control purposes. The expression of Sox2 is normalized to the expression of housekeeping gene GAPDH.
(§2) Neonatal human dermal fibroblasts (fibroblast cell line NHDF-3955-Neo from Lonza) are cultured under standard cell culture conditions using hFib media (DMEM, 20% Earl's 199 media, 10% FBS, Glutamax, beta-mercaptoethanol (bME)). Approximately 6,000 cells per well are plated on a 24-well plate. 48 hrs after plating, cells are daily fed with media containing 1 or 100 μM GPI-1046 with or without 0.5 μM Decitabine. On day 7 of treatment, cells are collected and RNA is extracted using a Qiagen RNeasy kit. Gene expression is analyzed using specific Taqman primer-probe sets for Sox2, Oct4 and GAPDH on an ABI 7900HT. The expression of Sox2 and Oct4 is normalized to the expression of housekeeping gene GAPDH.
as §2, with “LY 364947 (Tocris); for 50 μM 616 453 (Calbiochem); 1” for “GPI-1046 with”, “100 μM of A-83-01 (Tocris) or 1 or 100 μM SB 431542 (Tocris). Each treatment was performed in the presence or absence of” for “without”, “using” for “using a”, “Sox2” for “Sox2, Oct4”, “Sox2” for “Sox2 and Oct4”, “GAPDH. […] The morphology of the cells after treatment is depicted in FIG. 5.” for “GAPDH.”
Neonatal human dermal fibroblasts (fibroblast cell line NHDF-3955-Neo from Lonza) are cultured under standard cell culture conditions using hES medium, as described herein. Cells are treated with 0 μM, 2 μM, 10 μM, 50 μM, or 100 μM GPI-1046. […]

Klf4 = Klf4 gene expression (Taqman, normalized to GAPDH) in neonatal human dermal fibroblasts; format: cell-based; settings: after 6 days
Method: (§3) Neonatal human dermal fibroblasts (fibroblast cell line NHDF-3955-Neo from Lonza) are cultured under standard cell culture conditions using hFib media (DMEM, 20% Earl's 199 media, 10% FBS, Glutamax, beta-mercaptoethanol (bME)). Approximately 12,000 cells per well are plated on a 12-well plate. 24 hrs after plating, cells are daily fed with media containing 4, 10 or 20 μM DIM (Sigma) or 1% DMSO. After 6 days, cells are collected and RNA is extracted using a Qiagen RNeasy kit. Gene expression is analyzed using specific Taqman primer-probe sets for Klf4, p21 and GAPDH on an ABI 7900HT. Gene expression of cells previously infected with retroviruses encoding Sox2, Oct4, Klf4, and c-Myc (“KSOM”) is also analyzed and is used for positive control purposes. The expression of Klf4 and p21 is normalized to the expression of housekeeping gene GAPDH.

p21 = p21 gene expression (Taqman, normalized to GAPDH) in neonatal human dermal fibroblasts; format: cell-based; settings: after 6 days
Method: as §3

Oct4 = Oct4 gene expression (Taqman, normalized to GAPDH) in neonatal human dermal fibroblasts; format: cell-based; settings: for increase in Oct4 compared to cells that receive no agent treatment / increase in relative expression of Oct4 compared to cells treated with DMSO: after 6 days, hFib media
Method: as §1, §2
Neonatal human dermal fibroblasts (fibroblast cell line NHDF-3955-Neo from Lonza) are cultured under standard cell culture conditions using hES medium, as described herein. Cells are treated with 0 μM, 2 μM, 10 μM, 50 μM, or 100 μM GPI-1046. On day 5 or day 8 after treatment, cells are collected and RNA is extracted using a Qiagen RNeasy kit. Gene expression is analyzed using specific Taqman primer-probe sets for Sox2, Oct4 and GAPDH on an ABI 7900HT. Gene expression of cells previously infected with retroviruses encoding Sox2, Oct4, Klf4, and c-Myc (“KSOM”) is also analyzed and is used for positive control purposes. The expression of Sox2 and Oct4 is normalized to the expression of housekeeping gene GAPDH. […] The morphology of cells infected with viruses encoding KSOM is depicted in FIG. 8.

human BJ-5Tα fibroblasts = settings: Day 8
Method: In the case of compound 616452, cells KSO and KSOM-infected BJ-5Tα fibroblasts were fixed by 4% paraformaldehyde at Day 8, and then incubated with 50 μl 1-Step NBT/BCIP for 20 minutes for AP staining AP staining-positive colonies were counted (see FIGS. 15-16).

human BJ fibroblasts = settings: BJ fibroblasts (lack TERT), Day 8, reduced sensitivity compared to BJ-5Tα
Source text: In order to determine the effect of TGFβR inhibitor compounds on reprogramming we combined low multiplicity of infection (MOI) of retroviruses for three induction factor (Klf4, Sox2, and Oct ¾ or “KSO”) and four induction factor (Klf4, Sox2, Oct3/4, c-Myc or “KSOM”) reprogramming with various TGFβR inhibitors in human BJ-5Tα fibroblasts or BJ fibroblasts. […] By utilizing a low MOI infection protocol, we increased the sensitivity of the assay to detect the ability of various TGFβR inhibitor compounds to enhance the efficiency of reprogramming by three or four induction factor combinations.
Adherent BJ or BJ-5Tα (TERT-immortalized) fibroblast cells were infected “in bulk” with retroviruses for expression of the three induction factors (also referred to as “reprogramming factors”) KLF4, OCT3/4 and SOX2 (“KSO”), or the cells were infected with retroviruses for expression of KLF4, OCT4, SOX2 and c-MYC (“KSOM”), in each case at a multiplicity of infection (MOI) of 1, and transferred into 96-well plates in a serum-free human embryonic stem cell (hES) medium. […] AP activity was determined quantitatively using a chemiluminescent 1,2-dioxetane-phosphate substrate, which upon dephosphorylation by AP forms a metastable phenolate anion intermediate that decomposes emitting light quantified by a microplate luminometer.

mouse fibroblasts = settings: cited from earlier work
[1] = 100 μM with 0.5 μM Decitabine, day 7 of treatment
[2] = 100 μM, no Decitabine, day 7 of treatment

Molecule: Cc1cccc(-c2nc(C(C)(C)C)[nH]c2-c2ccc3c(c2)OCO3)n1 [616 453]
- relative Sox2 expression (Sox2; 1 μM, day 7 of treatment): an increase in relative Sox2 expression
- relative Sox2 expression (Sox2; 50 μM plus 0.5 μM Decitabine, day 7 of treatment): an increase in relative Sox2 expression
- Sox2 expression compared to cells that receive no treatment (Sox2; 2, 5, 25 or 50 μM, after 6 days): an increase in Sox2 expression
- relative Sox2 expression compared to cells treated with DMSO (Sox2; 2, 5 and 50 μM, after 6 days): an increase in relative Sox2 expression

Molecule: Cc1cccc(-c2nn(C(=S)Nc3ccccc3)cc2-c2ccnc3ccccc23)n1 [A-83-01]
- relative expression of Sox2 compared to control cells (Sox2; 1 or 100 μM, absence of Decitabine, day 7 of treatment): increased relative expression of Sox2
- relative Sox2 expression compared to control cells (Sox2; 1 or 100 μM, presence of 0.5 μM Decitabine, day 7 of treatment): a slight increase of relative Sox2 expression

Molecule: c1ccc2c(Cc3c[nH]c4ccccc34)c[nH]c2c1 [DIM]
- increase in Klf4 expression relative to cells treated with no agent (Klf4; 4 μM): approximately 2 fold
- increase in Klf4 expression compared to cells treated with no agent (Klf4; 10 μM): ~3.2 fold
- increase in p21 expression relative to cells treated with no agent (p21; 4 μM): approximately 2 fold
- increase in p21 expression compared to cells treated with no agent (p21; 10 μM): approximately 2 fold

Molecule: CCC(C)(C)C(=O)C(=O)N1CCCC1C(=O)OCCCc1cccnc1 (centres unmarked) [GPI-1046]
- levels of Sox2, Oct3/4 or both versus cells treated with no agent (Sox2; 4 μM, 10 μM, or 20 μM, after 6 days, hFib media): higher levels of Sox2, Oct3/4 or both
- increase of relative Sox2 expression compared to cells treated with DMSO (Sox2; 50 μM or 100 μM, after 6 days, hFib media): ~1.6 fold
- increase in Sox2 expression compared to cells that receive no drug treatment (Sox2; 50 μM, after 6 days, hFib media): 4.4 fold
- Sox2 expression compared to control cells (Sox2; [1]): slightly increased expression
- relative Sox2 expression compared to control cells (Sox2; 100 μM, Day 5, hES medium): an increase in relative Sox2 expression
- relative Sox2 expression compared to cells that do not receive drug treatment (Sox2; 100 μM, Day 8, hES medium): increases in relative Sox2 and Oct4 expression
- increase in Sox2 expression compared to cells that receive no drug treatment (Sox2; 100 μM, after 6 days, hFib media): 4.5 fold
- increase in Sox2 expression compared to control cells (Sox2; [2]): ~3.5 fold
- increase in Oct4 compared to cells that receive no agent treatment (Oct4; 50 μM): about 5.2 fold
- increase in relative expression of Oct4 compared to cells treated with DMSO (Oct4; 50 μM): ~3.5 fold
- Oct4 expression compared to control cells (Oct4; [1]): slightly increased expression
- relative Oct4 expression compared to cells that do not receive drug treatment (Oct4; 100 μM, Day 8, hES medium): increases in relative Sox2 and Oct4 expression
- increase in Oct4 compared to cells that receive no agent treatment (Oct4; 100 μM): ~5.7 fold
- increase in relative expression of Oct4 compared to cells treated with DMSO (Oct4; 100 μM): ~3.8 fold
- increase in Oct4 expression compared to control cells (Oct4; [2]): ~4.3 fold

Molecule: NC(=O)c1ccc(-c2nc(-c3ccc4c(c3)OCO4)c(-c3ccccn3)[nH]2)cc1 [SB 431542]
- relative Sox2 expression (Sox2; 100 μM plus 0.5 μM Decitabine, day 7 of treatment): an increase in relative Sox2 expression

Molecule: Cc1cccc(-c2n[nH]cc2-c2ccc3ncccc3n2)n1 [compound 616452]
- increase in number of AP positive colonies (human BJ-5Tα fibroblasts; KSO-infected BJ-5Tα fibroblasts): greater than ten fold
- increase in number of AP positive colonies (human BJ-5Tα fibroblasts; KSOM-infected BJ-5Tα fibroblasts): approximately five fold
- alkaline phosphatase activity (human BJ fibroblasts; four factor (KSOM) reprogramming): increased alkaline phosphatase activity
- alkaline phosphatase activity (human BJ fibroblasts; three factor (KSO) reprogramming): increased alkaline phosphatase activity

B1: Wnt3a: Wnt cell signaling molecule (protein, UniProt P56704 19-352, looked up)
Protein Wnt-3a: SYPIWWSLAVGPQYSSLGSQPILCASIPGLVPKQLRFCRNYVEIMPSVAEGIKIGIQECQHQFRGRRWNCTTVHDSLAIFGPVLDKATRESAFVHAIASAGVAFAVTRSCAEGTAAICGCSSRHQGSPGKGWKWGGCSEDIEFGGMVSREFADARENRPDARSAMNRHNNEAGRQAIASHMHLKCKCHGLSGSCEVKTCWWSQPDFRAIGDFLKDKYDSASEMVVEKHRESRGWVETLRPRYTYFKVPTERDLVYYEASPNFCEPNPETGSFGTRDRTCNVSSHGIDGCDLLCCGRGHNARAERRREKCRCVFHWCCYVSCQECTRVYDVHTCK
- enhancement of reprogramming efficiency (mouse fibroblasts; mouse fibroblasts in the presence of factors Oct4, Sox2 and Klf4): about 20 fold
- enhancement of reprogramming efficiency (mouse fibroblasts; mouse fibroblasts with Oct4, Sox2, Klf4 and c-Myc): 1.2 fold
